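Step 1: Grow cells in 96-well plates. Step 2: Expose to compound for 48 hours at 5 concentrations. Step 3: Interpolate endpoints linearly; if unreached, use highest concentration. The concentration for 50% growth inhibition is given as GI50. At the TGI there is no net growth.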 Where a SMILES comes first, the peptide text is derived from it. [ ]: non-standard residue; d: D form. The star is where a group is joined. ξ: configuration not given here. ξF = NC(Cc1ccccc1)C(=O)O; Cbz = O=C(OCc1ccccc1)*; Aib = CC(C)(N)C(=O)O
How the values were obtained:
Experiment in all cases: NCI anticancer screen, dose series, 48 h
NCI-H226 lung = tested on: NCI-H226 lung
OVCAR-5 ovarian = tested on: OVCAR-5 ovarian
EKVX NSCLC = tested on: EKVX NSCLC
A549 NSCLC = tested on: A549 NSCLC
UACC-257 melanoma = tested on: UACC-257 melanoma
IGROV1 ovarian = tested on: IGROV1 ovarian
UO-31 renal = tested on: UO-31 renal
NCI-H23 lung = tested on: NCI-H23 lung
SK-MEL-28 melanoma = tested on: SK-MEL-28 melanoma
COLO 205 colon = tested on: COLO 205 colon

| SMILES | TGI (NCI-H226 lung) | TGI (OVCAR-5 ovarian) | TGI (EKVX NSCLC) | TGI (A549 NSCLC) | TGI (UACC-257 melanoma) | TGI (IGROV1 ovarian) | TGI (UO-31 renal) | TGI (NCI-H23 lung) | TGI (SK-MEL-28 melanoma) | GI50 (NCI-H226 lung) | GI50 (OVCAR-5 ovarian) | GI50 (EKVX NSCLC) | GI50 (A549 NSCLC) | GI50 (UACC-257 melanoma) | GI50 (IGROV1 ovarian) | GI50 (UO-31 renal) | GI50 (NCI-H23 lung) | GI50 (SK-MEL-28 melanoma) | TGI (COLO 205 colon) |
| --- | --- | --- | --- | --- | --- | --- | --- | --- | --- | --- | --- | --- | --- | --- | --- | --- | --- | --- | --- |
| NCCSCc1ccccc1Cl | > 100 µM | > 100 µM | > 100 µM | > 100 µM | 51.9 µM | > 100 µM | > 100 µM | 95 µM | > 100 µM | – | – | – | – | – | – | – | – | – | – |
| COc1cc(-c2n/c(=C\c3c(O)[nH]c4cc(Cl)ccc34)cc3c2=Nc2ccccc2-3)cc(OC)c1OC | 21.9 µM | > 100 µM | 27.1 µM | 21.9 µM | 18.8 µM | 51.1 µM | > 100 µM | 23.2 µM | 13.8 µM | 3.85 µM | 18.3 µM | 4.99 µM | 4.8 µM | 4.01 µM | 5.56 µM | 18.3 µM | 3.57 µM | 4.05 µM | – |
| CCOc1ccc(N=NS(=O)(=O)O)cc1 | > 100 µM | > 100 µM | > 100 µM | > 100 µM | > 100 µM | > 100 µM | > 100 µM | > 100 µM | > 100 µM | – | – | – | – | – | – | – | – | – | > 100 µM |
| N=C(N)c1ccc(-c2ccc(-c3cccs3)s2)s1 | 52.4 µM | 2.52 µM | – | – | 3.11 µM | – | 2.1 µM | 3.42 µM | – | 6.89 µM | 1.21 µM | – | – | 1.66 µM | – | 0.318 µM | 1.62 µM | – | – |
| Nc1c(-c2ccccc2[N+](=O)[O-])nc2ccccn12 | > 100 µM | > 100 µM | > 100 µM | – | > 100 µM | > 100 µM | > 100 µM | > 100 µM | > 100 µM | – | – | – | – | – | – | – | – | – | > 100 µM |
| CC(=O)ON1C(=O)c2cccc3cccc(c23)C1=O | – | > 100 µM | > 100 µM | > 100 µM | 67 µM | > 100 µM | > 100 µM | 50 µM | 44.6 µM | – | – | – | – | – | – | – | – | – | 86.7 µM |
| Cc1ccc(N2CCN(CCC(=O)O)CC2)cc1 | > 100 µM | > 100 µM | > 100 µM | > 100 µM | > 100 µM | > 100 µM | > 100 µM | > 100 µM | > 100 µM | – | – | – | – | – | – | – | – | – | > 100 µM |
| COC(=O)C(C)(C)NC(=O)C(Cc1ccccc1)NC(=O)C(C)(C)NC(=O)OCc1ccccc1 (stereo not given) (Cbz-[Aib]-[ξF]-[Aib]-OMe) | – | > 100 µM | > 100 µM | > 100 µM | > 100 µM | > 100 µM | > 100 µM | – | > 100 µM | – | – | – | – | – | – | – | – | – | > 100 µM |
| Nc1nc2ccc(OCC(O)CN3CCCCC3)cc2[n+]([O-])n1 (stereo not given) | > 100 µM | > 100 µM | – | > 100 µM | > 100 µM | – | > 100 µM | > 100 µM | > 100 µM | – | – | – | – | – | – | – | – | – | > 100 µM |
| Cc1ccc(C(O)(c2ccc(C)cc2)c2ccccn2)cc1 | > 100 µM | > 100 µM | > 100 µM | > 100 µM | > 100 µM | > 100 µM | > 100 µM | > 100 µM | > 100 µM | – | – | – | – | – | – | – | – | – | > 100 µM |
| CCCCOCc1cc(CN2CCN(C)CC2)c(O)c2ncccc12 | 88.4 µM | 95.8 µM | > 100 µM | > 100 µM | > 100 µM | 97.3 µM | 55.8 µM | 47.6 µM | > 100 µM | – | – | – | – | – | – | – | – | – | > 100 µM |
| COc1cc(Nc2nnc3n2S(=O)(=O)c2cc(C)c(Cl)cc2S3)cc(OC)c1 | 55.1 µM | > 100 µM | > 100 µM | 30 µM | > 100 µM | 6.26 µM | > 100 µM | 43.7 µM | > 100 µM | – | – | – | – | – | – | – | – | – | > 100 µM |
| C(=N\OCCc1ccccc1)/c1cccnc1 | > 100 µM | > 100 µM | > 100 µM | > 100 µM | > 100 µM | > 100 µM | > 100 µM | > 100 µM | > 100 µM | – | – | – | – | – | – | – | – | – | > 100 µM |
| c1cncc(O[Si](Oc2cccnc2)(Oc2cccnc2)Oc2cccnc2)c1 | > 100 µM | > 100 µM | > 100 µM | > 100 µM | > 100 µM | > 100 µM | > 100 µM | > 100 µM | > 100 µM | – | – | – | – | – | – | – | – | – | > 100 µM |
| CC(C)(CCCCC(C)(C)C1NC(=O)N1)C1NC(=O)N1 | > 10 µM | > 10 µM | > 10 µM | > 10 µM | – | > 10 µM | > 10 µM | > 10 µM | > 10 µM | – | – | – | – | – | – | – | – | – | > 10 µM |

Reference: PubChem BioAssay (NCI)
